Assay results reported in patent publication US20230271770A1, “Anti-Viral Pharmaceutical Formulations Administered Via Devices for Lung Targeted Delivery” (priority 2020, published 2023).

Legend:
[1] = Cascade Impactor (Andersen) test, MDI actuator for stand-alone (handheld) use; type: physicochemical
Description: The particle size of an inhalation drug may be measured by an instrument called a Cascade Impactor, which consists of multiple discs. The size of the discs is graduated to properly determine the size of the particulate matter at various stages of the Cascade Impactor, which each represent the drug delivery to different portions of the entire respiratory tract. The Cascade Impactor collects samples of the drug in a graduated manner on each disc such that the average particle size of the collected drugs can be measured for each stage.
As discussed above, the particle size of an inhalation drug, namely the API, can be measured by a Cascade Impactor (Westech Instruments), which consists of multiple stages (0-7). The particle sizes at each stage are listed in Table 8, which represents the drug delivery to different portions of the entire respiratory tract using a stand-alone MDI actuator, for example actuator 500, discussed above.
As described above, the disclosed MDI actuator nozzles may include an inner diameter that is optimized to dispense fine API particle sizes, such as API particles having a diameter of about 1.1 μm or less. Table 12, below, outlines a study of the amount percentage (%) of fine API particles having particle diameters of less than about 1.1 μm versus nozzle inner diameter size of the disclosed MDI actuators, for example MDI actuator 500. […] The general components of MDI actuator 500 was utilized, but different nozzle inner diameter sizes were tested in this study. In particular, 3 different MDI actuators were tested: (1) MDI actuator having 0.42 mm nozzle inner diameter (“MDI Actuator A”), (2) MDI actuator having 0.28 mm nozzle inner diameter (“MDI Actuator B”), and (3) MDI actuator having 0.20 mm nozzle inner diameter (“MDI Actuator C”).

[2] = In-line Cascade Impactor (Andersen) evaluation, MDI actuator through elbow connection and ventilator tubing; type: physicochemical; parameters: Delivered <1.1 mcm / Delivered <4.7 mcm: unit not given here; conditions: 5% EtOH; for Delivered <4.7 mcm: Plate 3~5
Method: An example of a ventilator device, for example ventilator device 1700A, was tested and compared to a self-administrable, handheld MDI to determine the target site delivery efficiency in the ventilator circuit as compared to the MDI delivery efficiency without the ventilator circuit (e.g. no elbow connector or ventilator tubing).
Prime HCQ valve by discharging a predetermined number of actuations to waste. Discharge 10 actuations with actuator H004B-a into the cascade impaction sampling apparatus through an elbow connection w/inner channel and an in-line tubing (55 cm long).
Prime HCQ valve by discharging a predetermined number of actuations to waste. Discharge 10 actuations with actuator H004B-c into the cascade impaction sampling apparatus through an elbow connection with an inner channel and an in-line tubing (55 cm long).
Prime HCQ valve by discharging a predetermined number of actuations to waste. […]

[3] = Estimated HCQ concentration in alveolar fluid (oral tablets, inhalation); parameters: species or system human
Method: The HCQ molecules in the plasma can penetrate capillaries outside the alveolar membrane to reach the alveolar lining fluid (“ALF”).
A similar analysis was performed for HCQ administered by inhalation.

[4] = parameters: species or system mice; conditions: mouse, in vivo, 10 min
Method: Mice can breathe the aerosol of drug products. A breathing tank is used for mice to breathe the aerosol of the drug product, such as HCQ. The drug product is administered through the specially designed stainless steel breathing tank 1800, for example as shown in FIG. 18.
The exposure tank size is designed such that the total breathing volume of all eight mice during a 10-minute breathing treatment (1.8 L) is less than 10% of the tank size (21.5 L). The internal wall of the tank is electrically polished to minimize its adsorption of the study drug. Eight mice were mounted to the tank with four mice on each side using small animal restraints. At the start of each treatment session, an effective amount of the drug was administered into pre-cleaned tank. A stirring fan installed inside the tank was set to promote circulation of the pharmaceutical agent. Specifically, the fan was set at 400 RPM in this study and turned on before the pharmaceutical agent was administered. Thirty seconds after the last spray (t=0 minute), eight mice were mounted to the inhalation chamber to breathe the air from inside the breathing tank for 10 minutes, and then were taken off the breathing tank. Samples from the mice were taken, starting immediately after removal from the tank, to perform pharmacokinetic studies. […]

[5] = human, in vivo, po; cited from earlier work

CCN(CCO)CCCC(C)Nc1ccnc2cc(Cl)ccc12 (stereo not shown) [HCQ, hydroxychloroquine]
EPM (6-filter; P6-F, <1.1 μm for Alveoli), Compared to strength (delivery rate) ([1]; Actuator A (nozzle 0.42 mm)): 21.6%
EPM (6-filter; P6-F, <1.1 μm for Alveoli), Compared to strength (delivery rate) ([1]; Actuator B (nozzle 0.28 mm)): 39.7%
EPM (6-filter; P6-F, <1.1 μm for Alveoli), Compared to strength (delivery rate) ([1]; Actuator C (nozzle 0.20 mm)): about 53.9%
Delivery Rate ([1]; Alveoli, <1.1 mcm, actuator O-0.20, 5% EtOH, 200 mcg): 44.5%
Delivery Rate ([1]; Alveoli, <1.1 mcm, actuator O-0.20, 5% EtOH, 200 mcg (Table 21)): 44.5%
Delivered <1.1 mcm ([1]; Alveoli, actuator O-0.20, 5% EtOH, 200 mcg): 89
Delivered <1.1 mcm ([1]; Alveoli, actuator O-0.20, 5% EtOH, 200 mcg (Table 21)): 89
Delivery Rate ([1]; Plate 3~5, <4.7 mcm, actuator O-0.20, 5% EtOH, 200 mcg): 50.7%
Delivered <4.7 mcm ([1]; Plate 3~5, actuator O-0.20, 5% EtOH, 200 mcg): 101.3
Delivery Rate ([2]; Alveoli, <1.1 mcm, in-Linc Tube (15 cm), HCQB-c, connection w/o inner channel, 200 mcg (#6)): 34.2%
Delivery Rate ([2]; Alveoli, <1.1 mcm, in-Line Tube (15 cm), HCQB-a, connection w/o inner channel, 200 mcg): 32.2%
Delivery Rate ([2]; Alveoli, <1.1 mcm, in-Line Tube (15 cm), HCQB-b, connection w/o inner channel, 200 mcg): 31.3%
Delivery Rate ([2]; Alveoli, <1.1 mcm, in-Line Tube (15 cm), HCQB-c, connection w/o inner channel, 200 mcg (#4)): 43.3%
Delivery Rate ([2]; Alveoli, <1.1 mcm, in-Line Tube (15 cm), HCQB-d, connection w/o inner channel, Ave, 200 mcg): 36.9%
Delivery Rate ([2]; Alveoli, <1.1 mcm, in-Line Tube (15 cm), HCQB-f, connection w/o inner channel, 200 mcg): 23.2%
Delivery Rate ([2]; Alveoli, <1.1 mcm, in-Line Tube (15 cm), HCQB-g, connection w/inner channel, 200 mcg): 34.0%
Delivery Rate ([2]; Alveoli, <1.1 mcm, in-Line Tube (15 cm), HCQB-g, connection w/o inner channel, 200 mcg): 31.5%
Delivery Rate ([2]; Alveoli, <1.1 mcm, in-Line Tube (15 cm), HCQB-h, connection w/ inner channel, 200 mcg): 35.9%
Delivery Rate ([2]; Alveoli, <1.1 mcm, in-Line Tube (15 cm), HCQB-h, connection w/o inner channel, 200 mcg): 31.1%
Delivery Rate ([2]; Alveoli, <1.1 mcm, in-Line Tube (15 cm), HCQB-i, connection w/inner channel, 200 mcg): 27.5%
Delivery Rate ([2]; Alveoli, <1.1 mcm, in-Line Tube (15 cm), HCQB-i, connection w/o inner channel, 200 mcg): 37.9%
Delivery Rate ([2]; Alveoli, <1.1 mcm, in-Line Tube (15 cm), HCQB-j, connection w/o inner channel, 200 mcg): 29.1%
Delivery Rate ([2]; Alveoli, <1.1 mcm, in-Line Tube (55 cm), HCQB-a, connection w/inner channel, 200 mcg): 19.3%
Delivery Rate ([2]; Alveoli, <1.1 mcm, in-Line Tube (55 cm), HCQB-b, connection w/inner channel, 200 mcg): 26.9%
Delivery Rate ([2]; Alveoli, <1.1 mcm, in-Line Tube (55 cm), HCQB-c, connection w/inner channel, Ave, 200 mcg): 37.9%
Delivery Rate ([2]; Alveoli, <1.1 mcm, in-Line Tube (55 cm), HCQB-d, connection w/inner channel, 200 mcg): 26.4%
Delivery Rate ([2]; Alveoli, <1.1 mcm, in-Line Tube (55 cm), HCQB-f, connection w/inner channel, Ave, 200 mcg): 34.7%
Delivery Rate ([2]; Alveoli, <1.1 mcm, in-Line Tube (55 cm), HCQB-j, connection w/ inner channel, 200 mcg): 30.3%
Delivered <1.1 mcm ([2]; Alveoli, in-Linc Tube (15 cm), HCQB-c, connection w/o inner channel, 200 mcg (#6)): 68.4
Delivered <1.1 mcm ([2]; Alveoli, in-Line Tube (15 cm), HCQB-a, connection w/o inner channel, 200 mcg): 64.4
Delivered <1.1 mcm ([2]; Alveoli, in-Line Tube (15 cm), HCQB-b, connection w/o inner channel, 200 mcg): 62.6
Delivered <1.1 mcm ([2]; Alveoli, in-Line Tube (15 cm), HCQB-c, connection w/o inner channel, 200 mcg (#4)): 86.6
Delivered <1.1 mcm ([2]; Alveoli, in-Line Tube (15 cm), HCQB-d, connection w/o inner channel, Ave, 200 mcg): 73.8
Delivered <1.1 mcm ([2]; Alveoli, in-Line Tube (15 cm), HCQB-f, connection w/o inner channel, 200 mcg): 46.3
Delivered <1.1 mcm ([2]; Alveoli, in-Line Tube (15 cm), HCQB-g, connection w/inner channel, 200 mcg): 68.0
Delivered <1.1 mcm ([2]; Alveoli, in-Line Tube (15 cm), HCQB-g, connection w/o inner channel, 200 mcg): 63.0
Delivered <1.1 mcm ([2]; Alveoli, in-Line Tube (15 cm), HCQB-h, connection w/ inner channel, 200 mcg): 71.7
Delivered <1.1 mcm ([2]; Alveoli, in-Line Tube (15 cm), HCQB-h, connection w/o inner channel, 200 mcg): 62.1
Delivered <1.1 mcm ([2]; Alveoli, in-Line Tube (15 cm), HCQB-i, connection w/inner channel, 200 mcg): 55.0
Delivered <1.1 mcm ([2]; Alveoli, in-Line Tube (15 cm), HCQB-i, connection w/o inner channel, 200 mcg): 75.7
Delivered <1.1 mcm ([2]; Alveoli, in-Line Tube (15 cm), HCQB-j, connection w/o inner channel, 200 mcg): 58.1
Delivered <1.1 mcm ([2]; Alveoli, in-Line Tube (55 cm), HCQB-a, connection w/inner channel, 200 mcg): 38.5
Delivered <1.1 mcm ([2]; Alveoli, in-Line Tube (55 cm), HCQB-b, connection w/inner channel, 200 mcg): 53.8
Delivered <1.1 mcm ([2]; Alveoli, in-Line Tube (55 cm), HCQB-c, connection w/inner channel, Ave, 200 mcg): 75.8
Delivered <1.1 mcm ([2]; Alveoli, in-Line Tube (55 cm), HCQB-d, connection w/inner channel, 200 mcg): 52.8
Delivered <1.1 mcm ([2]; Alveoli, in-Line Tube (55 cm), HCQB-f, connection w/inner channel, Ave, 200 mcg): 69.4
Delivered <1.1 mcm ([2]; Alveoli, in-Line Tube (55 cm), HCQB-j, connection w/ inner channel, 200 mcg): 60.5
Delivery Rate ([2]; Plate 3~5, <4.7 mcm, in-Line Tube (15 cm), HCQB-g, connection w/inner channel, 200 mcg): 30.5%
Delivery Rate ([2]; Plate 3~5, <4.7 mcm, in-Line Tube (15 cm), HCQB-h, connection w/inner channel, 200 mcg): 25.8%
Delivery Rate ([2]; Plate 3~5, <4.7 mcm, in-Line Tube (15 cm), HCQB-i, connection w/inner channel, 200 mcg): 22.8%
Delivery Rate ([2]; Plate 3~5, <4.7 mcm, in-Line Tube (55 cm), HCQB-a, connection w/inner channel, 200 mcg): 13.3%
Delivery Rate ([2]; Plate 3~5, <4.7 mcm, in-Line Tube (55 cm), HCQB-b, connection w/inner channel, 200 mcg): 21.3%
Delivery Rate ([2]; Plate 3~5, <4.7 mcm, in-Line Tube (55 cm), HCQB-c, connection w/inner channel, 200 mcg): 29.0%
Delivery Rate ([2]; Plate 3~5, <4.7 mcm, in-Line Tube (55 cm), HCQB-d, connection w/inner channel, 200 mcg): 23.3%
Delivery Rate ([2]; Plate 3~5, <4.7 mcm, in-Line Tube (55 cm), HCQB-e, connection w/inner channel, 200 mcg): 29.0%
Delivery Rate ([2]; Plate 3~5, <4.7 mcm, in-Line Tube (55 cm), HCQB-f, connection w/inner channel, 200 mcg): 28.3%
Delivery Rate ([2]; Plate 3~5, <4.7 mcm, in-Line Tube (55 cm), HCQB-j, connection w/inner channel, 200 mcg): 20.0%
Delivered <4.7 mcm ([2]; in-Line Tube (15 cm), HCQB-g, connection w/inner channel, 200 mcg): 60.9
Delivered <4.7 mcm ([2]; in-Line Tube (15 cm), HCQB-h, connection w/inner channel, 200 mcg): 51.6
Delivered <4.7 mcm ([2]; in-Line Tube (15 cm), HCQB-i, connection w/inner channel, 200 mcg): 45.5
Delivered <4.7 mcm ([2]; in-Line Tube (55 cm), HCQB-a, connection w/inner channel, 200 mcg): 26.5
Delivered <4.7 mcm ([2]; in-Line Tube (55 cm), HCQB-b, connection w/inner channel, 200 mcg): 42.6
Delivered <4.7 mcm ([2]; in-Line Tube (55 cm), HCQB-c, connection w/inner channel, 200 mcg): 57.9
Delivered <4.7 mcm ([2]; in-Line Tube (55 cm), HCQB-d, connection w/inner channel, 200 mcg): 46.6
Delivered <4.7 mcm ([2]; in-Line Tube (55 cm), HCQB-e, connection w/inner channel, 200 mcg): 57.9
Delivered <4.7 mcm ([2]; in-Line Tube (55 cm), HCQB-f, connection w/inner channel, 200 mcg): 56.5
Delivered <4.7 mcm ([2]; in-Line Tube (55 cm), HCQB-j, connection w/inner channel, 200 mcg): 39.9
estimated concentration of HCQ in alveolar fluid ([3]; after administration of HCQ by inhalation): up to 22 μM
estimated concentration of HCQ in alveolar fluid ([3]; oral tablets, Day-1 (800 mg dose, after 2nd 400 mg dose)): 0.45 µM
estimated concentration of HCQ in alveolar fluid ([3]; oral tablets, Day-1 after the 1st 400 mg dose): 0.23 µM
estimated concentration of HCQ in alveolar fluid ([3]; oral tablets, Day-2): 0.67 µM
estimated concentration of HCQ in alveolar fluid ([3]; oral tablets, Day-5 (total dose of 2,400 mg)): 1.3 µM
appearance of mice during and after treatment [4]: appeared healthy, with no signs of distress
BA [5]: 74%
share of tablet dose distributed to red blood cells or other protein in blood [5]: approximately 0.25%
share of tablet dose not absorbed or initially metabolized in liver [5]: approximately 26%
